Data from BindingDB's records for doi:10.1016/j.ejmech.2015.01.009 (Universiti Teknologi Mara (Uitm), 2015).

test: Inhibition of alpha-glucosidase (unknown origin) using pNPG substrate incubated for 15 mins by microplate reader based method

Structure (SMILES) | IC50 [µM]
O=C(N/N=C/c1ccc([N+](=O)[O-])cc1)c1ccc(-c2nc3ccccc3s2)cc1 | 26.4
O=C(N/N=C/c1ccc(F)cc1)c1ccc(-c2nc3ccccc3s2)cc1 | 7.12
COc1cc(/C=N/NC(=O)c2ccc(-c3nc4ccccc4s3)cc2)cc(OC)c1 | 16.2
O=C(N/N=C/c1ccccc1)c1ccc(-c2nc3ccccc3s2)cc1 | 8.05
O=C(N/N=C/c1ccc(F)c(Br)c1)c1ccc(-c2nc3ccccc3s2)cc1 | 28
COc1ccc(/C=N/NC(=O)c2ccc(-c3nc4ccccc4s3)cc2)cc1 | 18.3
O=C(N/N=C/c1c(O)cc(O)cc1O)c1ccc(-c2nc3ccccc3s2)cc1 | 8.37
O=C(N/N=C/c1ccc(O)c(Br)c1)c1ccc(-c2nc3ccccc3s2)cc1 | 8.07
O=C(N/N=C/c1ccc(Cl)cc1)c1ccc(-c2nc3ccccc3s2)cc1 | 5.31
COc1cccc(/C=N/NC(=O)c2ccc(-c3nc4ccccc4s3)cc2)c1 | 11.1
O=C(N/N=C/c1cccc(O)c1)c1ccc(-c2nc3ccccc3s2)cc1 | 9.21
COc1cc(/C=N/NC(=O)c2ccc(-c3nc4ccccc4s3)cc2)ccc1O | 53.3
COc1ccc(/C=N/NC(=O)c2ccc(-c3nc4ccccc4s3)cc2)c(I)c1O | 44.8
O=C(N/N=C/c1cc(O)ccc1O)c1ccc(-c2nc3ccccc3s2)cc1 | 11.8
O=C(N/N=C/c1cc(O)cc(O)c1)c1ccc(-c2nc3ccccc3s2)cc1 | 11.1
COc1ccc(O)c(/C=N/NC(=O)c2ccc(-c3nc4ccccc4s3)cc2)c1 | 6.5
O=C(N/N=C\c1ccccn1)c1ccc(-c2nc3ccccc3s2)cc1 | 10.2
O=C(N/N=C/c1ccc(O)cc1)c1ccc(-c2nc3ccccc3s2)cc1 | 11.3
O=C(N/N=C/c1cccs1)c1ccc(-c2nc3ccccc3s2)cc1 | 8.48
O=C(N/N=C/c1cccc(O)c1O)c1ccc(-c2nc3ccccc3s2)cc1 | 11.2
COc1ccc(/C=N/NC(=O)c2ccc(-c3nc4ccccc4s3)cc2)c(O)c1 | 6.97
O=C(N/N=C/c1ccccc1O)c1ccc(-c2nc3ccccc3s2)cc1 | 5.55
O=C(N/N=C\c1ccco1)c1ccc(-c2nc3ccccc3s2)cc1 | 12.8
O=C(N/N=C/c1ccc(O)c(O)c1)c1ccc(-c2nc3ccccc3s2)cc1 | 15.1
O=C(N/N=C/c1ccc(O)cc1O)c1ccc(-c2nc3ccccc3s2)cc1 | 5.58
